The source of these data is patent publication US7569570B2, “Thienopyrimidines, process for preparing the same and use thereof” (Takeda Pharmaceutical Company Limited, priority 2002, dated 2009).

Broadly, the melting point is the temperature of the solid-liquid transition.

For `CCNC(=O)Nc1ccc(-c2sc3c(c2CN(C)CCOC)c(=O)n(-c2ccc(O)cc2)c(=O)n3Cc2c(F)cccc2F)cc1` [Example 103], the melting point was 260 to 265 °C. To `CCNC(=O)Nc1ccc(-c2sc3c(c2CN(C)CC(=O)OCC)c(=O)n(-c2ccccc2)c(=O)n3Cc2c(F)cccc2F)cc1` [Example 5, ethyl[{[1-(2,6-difluorobenzyl)-6-(4-{[(ethylamino)carbonyl]amino}phenyl)-2,4-dioxo-3-phenyl-1,2,3,4-tetrahydrothieno[2,3-d]pyrimidin-5-yl]methyl}(methyl)amino]acetate] belongs 208 to 209 °C; to `CCNC(=O)Nc1ccc(-c2sc3c(c2CN(C)C[C@H]2CCCN2S(C)(=O)=O)c(=O)n(-c2ccccc2)c(=O)n3Cc2c(F)cccc2F)cc1` [Example 85], 189 to 190 °C; to `CCNC(=O)Nc1ccc(-c2sc3c(c2CN(C)CCNC)c(=O)n(-c2ccccc2)c(=O)n3Cc2c(F)cccc2F)cc1` [Example 26, N-{4-[1-(2,6-difluorobenzyl)-5-({methyl[2-(methylamino)ethyl]amino}methyl)-2,4-dioxo-3-phenyl-1,2,3,4-tetrahydrothieno[2,3-d]pyrimidin-6-yl)phenyl}-N′-ethylurea], 192 to 193 °C. For the compound `CCNC(=O)Nc1ccc(-c2sc3c(c2CNCCOCC)c(=O)n(-c2ccccc2)c(=O)n3Cc2c(F)cccc2F)cc1` [Example 3], the melting point fell in the range of 211 to 213 °C. The same measure for `CCNC(=O)Nc1ccc(-c2sc3c(c2CN(C)CCNS(C)(=O)=O)c(=O)n(-c2ccccc2)c(=O)n3Cc2c(F)cccc2F)cc1` [Example 22, N-{2-[{[1-(2,6-difluorobenzyl)-6-(4-{[(ethylamino)carbonyl]amino}phenyl)-2,4-dioxo-3-phenyl-1,2,3,4-tetrahydrothieno[2,3-d]pyrimidin-5-yl]methyl}(methyl)amino]ethyl}methanesulfonamide]: 186 to 188 °C; for `CCNC(=O)Nc1ccc(-c2sc3c(c2CN(C)CCN2CCCC2=O)c(=O)n(-c2ccc(OCCOC)cc2)c(=O)n3Cc2c(F)cccc2F)cc1` [Example 34]: 175 to 177 °C.

Compound `CCNC(=O)Nc1ccc(-c2sc3c(c2CN(C)CCC(=O)OCC)c(=O)n(-c2ccccc2)c(=O)n3Cc2c(F)cccc2F)cc1` [Example 4, ethyl 3-[{[1-(2,6-difluorobenzyl)-6-(4-{[(ethylamino)carbonyl]amino}phenyl)-2,4-dioxo-3-phenyl-1,2,3,4-tetrahydrothieno[2,3-d]pyrimidin-5-yl]methyl}(methyl)amino]propanate] displayed a melting point of 198 to 200 °C. As for `CCNC(=O)Nc1ccc(-c2sc3c(c2CN(C)CCN(C)S(C)(=O)=O)c(=O)n(-c2ccccc2)c(=O)n3Cc2c(F)cccc2F)cc1` [Example 23, N-{2-[{[1-(2,6-difluorobenzyl)-6-(4-{[(ethylamino)carbonyl]amino)phenyl)-2,4-dioxo-3-phenyl-1,2,3,4-tetrahydrothieno[2,3-d]pyrimidin-5-yl]methyl}(methyl)amino]ethyl}-N-methylmethanesulfonamide], the melting point lay within 216 to 218 °C. Compound `CCNC(=O)Nc1ccc(-c2sc3c(c2CN(C)CCOC)c(=O)n(-c2ccc(NC(=O)NCC)cc2)c(=O)n3Cc2c(F)cccc2F)cc1` [Example 99, N-[4-(3-(4-{(ethylamino)carbonylamino}phenyl)-1-(2,6-difluorobenzyl)-5-{[2-methoxyethyl(methyl)amino]methyl}-2,4-dioxo-1,2,3,4-tetrahydrothieno[2,3-d]pyrimidin-6-yl)phenyl]-N′-ethylurea] registered a melting point of 236 to 239 °C. The same measure for `CCNC(=O)Nc1ccc(-c2sc3c(c2CN(C)CCOC)c(=O)n(-c2ccc(OCCOC)c(OCCOC)c2)c(=O)n3Cc2c(F)cccc2F)cc1` [Example 105]: 222 to 225 °C.
